Measured values: patent publication US20020137929A1, “1 - (3-heterocyclylphenyl) isothiourea, -isourea, -guanidine and -amidine herbicidal agents” (Intellectual Property Department, BASF Aktiengesellschaft, priority 1998, published 2002)

Legend:
AMBEL (Ragweed, Common) = assay: Postemergence herbicidal evaluation; format: in vivo, Ambrosia artemisifolia; conditions: postemergence
How it was run: (§1)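 Seedlings grown about two weeks were sprayed at 40 psi with compound dispersed in 50/50 acetone/water plus 0.5% TWEEN 20, at about 0.0156 to 0.500 kg/ha. Plants were kept in the greenhouse and scored 4–5 weeks later on a 0–9 visual scale against untreated controls.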

GALAP (Galium) = assay: Postemergence herbicidal evaluation; format: in vivo, Galium aparine; conditions: postemergence
How it was run: as §1

[1] = system: TRZAWR (Wheat, Winter, cv Riband); assay: Postemergence herbicidal evaluation; format: in vivo, Triticum aestivum; conditions: postemergence
How it was run: as §1

[2] = system: CHEAL (Lambsquarters, Common); assay: Preemergence herbicidal evaluation; format: in vivo, Chenopodium album; conditions: rated 4-5 weeks after treatment
How it was run: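 Seeds were planted in potting soil in cups, then sprayed preemergence with the test compound in aqueous acetone at about 0.0156 to 0.500 kg per hectare. Cups were kept under greenhouse conditions and visually rated 4–5 weeks after treatment on a 0–9 scale against an untreated control.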

MOOVA (Monochoria) = assay: Postemergence weed control under flooded paddy conditions; format: in vivo, Monochoria vaginalis; conditions: postemergence weeds, 3-4 weeks after treatment
How it was run: (§2)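 Weeds 3 to 5 cm tall and rice seedlings at the 1.5 to 2.5 leaf stage were flooded, with water held 1.5 to 3 cm above the soil. Compounds in 50/50 v/v aqueous/acetone went into the flood water at about 0.0313 to 0.500 kg/ha. Visual 0-9 ratings versus control were made 3 to 4 weeks later.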

[3] = system: SAGPY (Arrowhead (Pygmaea)); assay: as above; format: in vivo, Sagittaria pygmaea; conditions: postemergence weeds, 3-4 weeks after treatment
How it was run: as §2

CCOC(=O)CN1C(=O)C2(CC2)SC1=Nc1cc(-n2c(=O)cc(C(F)(F)F)n(C)c2=O)c(F)cc1Cl [Compound 15, Ethyl 5-{{2-chloro-5-[3,6-dihydro-3-methyl-2,6-dioxo-4-(trifluoromethyl)-1(2H)-pyrimidinyl]-4-fluorophenyl}imino}-7-oxo-4-thia-6-azaspiro[2.4]-heptane-6-acetate]
AMBEL herbicidal rating (AMBEL (Ragweed, Common); rate 0.0156 kg/ha): 0.0 | AMBEL herbicidal rating (AMBEL (Ragweed, Common); rate 0.0313 kg/ha): 0.0 | AMBEL herbicidal rating (AMBEL (Ragweed, Common); rate 0.0625 kg/ha): 4.0 | AMBEL herbicidal rating (AMBEL (Ragweed, Common); rate 0.1250 kg/ha): 9.0 | GALAP herbicidal rating (GALAP (Galium); rate 0.0156 kg/ha): 0.0 | GALAP herbicidal rating (GALAP (Galium); rate 0.0313 kg/ha): 0.0 | GALAP herbicidal rating (GALAP (Galium); rate 0.0625 kg/ha): 3.0 | GALAP herbicidal rating (GALAP (Galium); rate 0.1250 kg/ha): 6.0 | TRZAWR herbicidal rating ([1]; rate 0.0156 kg/ha): 5.0 | TRZAWR herbicidal rating ([1]; rate 0.0313 kg/ha): 6.0 | TRZAWR herbicidal rating ([1]; rate 0.0625 kg/ha): 6.5 | TRZAWR herbicidal rating ([1]; rate 0.1250 kg/ha): 7.0 | CHEAL preemergence herbicidal rating ([2]; rate 0.0156 kg/ha): 6.5 | CHEAL preemergence herbicidal rating ([2]; rate 0.0313 kg/ha): 9.0 | CHEAL preemergence herbicidal rating ([2]; rate 0.0625 kg/ha): 9.0 | CHEAL preemergence herbicidal rating ([2]; rate 0.1250 kg/ha): 9.0 | CHEAL preemergence herbicidal rating ([2]; rate 0.2500 kg/ha): 9.0 | Herbicidal rating MOOVA (MOOVA (Monochoria); rate 0.0313 kg/ha): 9.0 | Herbicidal rating MOOVA (MOOVA (Monochoria); rate 0.0625 kg/ha): 9.0 | Herbicidal rating MOOVA (MOOVA (Monochoria); rate 0.1250 kg/ha): 9.0 | Herbicidal rating MOOVA (MOOVA (Monochoria); rate 0.2500 kg/ha): 9.0 | Herbicidal rating SAGPY ([3]; rate 0.0313 kg/ha): 0.0 | Herbicidal rating SAGPY ([3]; rate 0.0625 kg/ha): 0.0 | Herbicidal rating SAGPY ([3]; rate 0.1250 kg/ha): 0.0 | Herbicidal rating SAGPY ([3]; rate 0.2500 kg/ha): 0.0

CCOC(=O)CN1C(=O)CO/C1=N/c1cc(-n2c(=O)cc(C(F)(F)F)n(C)c2=O)c(F)cc1Cl [Compound 22, Ethyl 2-{{2-chloro-5-[3,6-dihydro-3-methyl-2,6-dioxo-4-(trifluoromethyl)-1(2H)-pyrimidinyl]-4-fluorophenyl}imino}-4-oxo-3-oxazolidineacetate]
AMBEL herbicidal rating (AMBEL (Ragweed, Common); rate 0.0158 kg/ha): 6.0 | AMBEL herbicidal rating (AMBEL (Ragweed, Common); rate 0.0315 kg/ha): 6.0 | AMBEL herbicidal rating (AMBEL (Ragweed, Common); rate 0.0630 kg/ha): 7.0 | GALAP herbicidal rating (GALAP (Galium); rate 0.0158 kg/ha): 4.0 | GALAP herbicidal rating (GALAP (Galium); rate 0.0315 kg/ha): 4.0 | GALAP herbicidal rating (GALAP (Galium); rate 0.0630 kg/ha): 3.0 | TRZAWR herbicidal rating ([1]; rate 0.0158 kg/ha): 4.0 | TRZAWR herbicidal rating ([1]; rate 0.0315 kg/ha): 3.5 | TRZAWR herbicidal rating ([1]; rate 0.0630 kg/ha): 5.0 | CHEAL preemergence herbicidal rating ([2]; rate 0.0156 kg/ha): 9.0 | CHEAL preemergence herbicidal rating ([2]; rate 0.0313 kg/ha): 9.0 | CHEAL preemergence herbicidal rating ([2]; rate 0.0625 kg/ha): 9.0 | CHEAL preemergence herbicidal rating ([2]; rate 0.1250 kg/ha): 9.0 | CHEAL preemergence herbicidal rating ([2]; rate 0.2500 kg/ha): 9.0 | Herbicidal rating MOOVA (MOOVA (Monochoria); rate 0.1160 kg/ha): 9.0 | Herbicidal rating MOOVA (MOOVA (Monochoria); rate 0.2310 kg/ha): 9.0 | Herbicidal rating MOOVA (MOOVA (Monochoria); rate 0.4630 kg/ha): 9.0 | Herbicidal rating SAGPY ([3]; rate 0.1160 kg/ha): 4.0 | Herbicidal rating SAGPY ([3]; rate 0.2310 kg/ha): 4.0 | Herbicidal rating SAGPY ([3]; rate 0.4630 kg/ha): 5.0

CN(C)N1C(=O)CSC1=Nc1cc(-n2c(=O)cc(C(F)(F)F)n(C)c2=O)c(F)cc1Cl [Compound 23, 3-{4-Chloro-5-{[3-(dimethylamino)-4-oxo-2-thiazolidinylidine]amino}-2-fluorophenyl}-1-methyl-6-(trifluoromethyl)-2,4(1H,3H)-pyrimidinedione]
AMBEL herbicidal rating (AMBEL (Ragweed, Common); rate 0.0158 kg/ha): 2.0 | AMBEL herbicidal rating (AMBEL (Ragweed, Common); rate 0.0315 kg/ha): 4.0 | AMBEL herbicidal rating (AMBEL (Ragweed, Common); rate 0.0630 kg/ha): 7.0 | GALAP herbicidal rating (GALAP (Galium); rate 0.0158 kg/ha): 3.0 | GALAP herbicidal rating (GALAP (Galium); rate 0.0315 kg/ha): 7.0 | GALAP herbicidal rating (GALAP (Galium); rate 0.0630 kg/ha): 9.0 | TRZAWR herbicidal rating ([1]; rate 0.0158 kg/ha): 2.5 | TRZAWR herbicidal rating ([1]; rate 0.0315 kg/ha): 4.0 | TRZAWR herbicidal rating ([1]; rate 0.0630 kg/ha): 5.0 | CHEAL preemergence herbicidal rating ([2]; rate 0.0156 kg/ha): 0.0 | CHEAL preemergence herbicidal rating ([2]; rate 0.0313 kg/ha): 1.0 | CHEAL preemergence herbicidal rating ([2]; rate 0.0625 kg/ha): 7.0 | CHEAL preemergence herbicidal rating ([2]; rate 0.1250 kg/ha): 9.0 | CHEAL preemergence herbicidal rating ([2]; rate 0.2500 kg/ha): 9.0 | Herbicidal rating MOOVA (MOOVA (Monochoria); rate 0.1160 kg/ha): 9.0 | Herbicidal rating MOOVA (MOOVA (Monochoria); rate 0.2310 kg/ha): 9.0 | Herbicidal rating MOOVA (MOOVA (Monochoria); rate 0.4630 kg/ha): 9.0 | Herbicidal rating SAGPY ([3]; rate 0.1160 kg/ha): 0.0 | Herbicidal rating SAGPY ([3]; rate 0.2310 kg/ha): 0.0 | Herbicidal rating SAGPY ([3]; rate 0.4630 kg/ha): 3.0
